{
  "source": "patent US20110171192A1",
  "about": "“SUBSTITUTED AMINE DERIVATIVE AND MEDICINAL COMPOSITION COMPRISING SAME AS THE ACTIVE INGREDIENT” (priority 2008, published 2011)",
  "key": {"[1]": {"assay": "Stability of nucleic acid transporter inhibitor in solution (acetate buffer pH 3, HPLC)", "type": "physicochemical", "settings": "for residual ratio of the compound (%): acetate buffer pH 3, 10^−5 M, 25 °C, 20 hours after", "protocol": "Stability of Nucleic Acid Transporter Inhibitor in Solution\n0.02 mL of comparative compound or compound (1) methanol solution at the concentration of 10^−3 M was added to the 1.98 mL of acetate buffer, pH 3 (final concentration of 10^−5 M). The solutions were incubated at 25 °C, and the reaction solutions were collected at 2, 4 and 20 hours later. Each obtained 0.5 mL of reaction solutions were neutralized and adjusted to 1 mL, and 0.01 mL of 10^−3 M methanol solutions of 4-hydroxy were spiked as internal standard substrate. The solutions were measured by HPLC according to the measurement condition shown as follows, and the ratio (IS ratio) compared the amount of internal standard substrate with the amount of compounds was calculated. The remaining rate of test compounds were obtained to compare the IS ratio with IS ratio of pre-incubation according to the method described above.\nHPLC Analytical Condition • column: Inertsil ODS-2 (φ4.6×150 mm) • Mobile phase: 20 mM phosphate buffer (pH 6)/CH3CN=7/3 (w/w) • Detection absorbance: 250 nm • Flow rate: 1 mL/min • Injection volume: 0.02 mL • Time span of measurement: 20 min"}, "absorption of adenosine": {"system": "absorption of adenosine", "assay": "Inhibition of absorption of orally given [3H]-adenosine in rats (serum radioactivity)", "type": "in vivo", "settings": "male SD rats, oral; for ED50: Rattus norvegicus, 50% inhibitory dose on absorption of adenosine, from regression line; for ED50 value (in words): inhibition on absorption of adenosine", "protocol": "Four weeks old male SD rats (Charles river japan corporation) were purchased and the animals over 1 weeks quarantine were used. Body weight of the rats fasted 24 hours from last day were measured and grouped used grouping soft (Stat light #11, Yukums corporation). Test compound and [^3H]-adenosine solution (4 μCi/mL) were given orally at the volume of 2 mL/kg, and about 500 μL of blood were obtained from retro orbital vein. The blood was centrifuged at 3000 rpm for 10 min, and 13 μL of H2O2 solution were added to the 100 μL of resulted serum and placed for 10 min. And 5 mL of liquid scintilation cocktail added and mixed enough, and radio activity was measured using liquid scintillation counter. Inhibitory rate was calculated according to the formula described as follow, and the regression line was obtained from inhibitory rate and its log dose. The 50% inhibitory dose of the compound (ED50) at the inhibition on absorption of adenosine was calculated used regression line formula The results were shown in Table 2.\nInhibitory ratio={1−radio activity of the serum obtained from rats treated with test compound (dpm)/radio activity of the serum obtained from rats treated with vehicle (dpm)}×100"}, "human CNT2": {"target": "T1, human CNT2 (Homo sapiens, UniProt O43868)", "T1 construct": "expressed in transfected cells", "T1 sequence (O43868 1-658)": "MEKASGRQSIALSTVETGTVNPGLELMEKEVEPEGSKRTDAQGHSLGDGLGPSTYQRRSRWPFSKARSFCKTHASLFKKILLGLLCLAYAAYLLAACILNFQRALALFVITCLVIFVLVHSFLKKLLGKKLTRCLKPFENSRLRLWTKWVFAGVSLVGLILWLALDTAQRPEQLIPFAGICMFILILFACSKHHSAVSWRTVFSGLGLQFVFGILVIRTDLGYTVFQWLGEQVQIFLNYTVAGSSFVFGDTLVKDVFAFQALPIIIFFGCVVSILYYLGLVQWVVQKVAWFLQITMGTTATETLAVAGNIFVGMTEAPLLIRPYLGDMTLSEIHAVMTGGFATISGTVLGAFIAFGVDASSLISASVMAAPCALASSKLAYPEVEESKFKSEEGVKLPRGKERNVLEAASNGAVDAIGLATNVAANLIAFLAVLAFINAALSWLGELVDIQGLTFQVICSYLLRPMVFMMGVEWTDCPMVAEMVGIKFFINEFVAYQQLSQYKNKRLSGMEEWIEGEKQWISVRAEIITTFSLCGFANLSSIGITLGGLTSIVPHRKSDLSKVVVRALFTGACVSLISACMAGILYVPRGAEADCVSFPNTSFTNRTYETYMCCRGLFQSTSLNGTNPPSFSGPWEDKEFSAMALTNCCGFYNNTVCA", "assay": "Inhibitory activity against uptake of adenosine through human CNT2", "type": "cell-based", "settings": "human CNT2 transiently expressing cells, 14C-adenosine 10 μM, 30 minutes at 37° C., NBMPR 10 μM", "protocol": "Measurement of Inhibitory Activity Against Uptake of Adenosine Through Human CNT2\nAn Uptake buffer was prepared by addition of a mixture of non-radioisotope labeled (Sigma) and ^14C-labeled (GE Healthcare) adenosine at the final concentration of 10 μM into a buffer, pH 7.4, containing 140 mM sodium chloride, 2 mM potassium chloride, 1 mM calcium chloride, 1 mM magnesium chloride, 10 mM HEPES\n2-[4-(2-hydroxyethyl)-1-piperazinyl]thane sulfonic acid, 5 mM tris(hydroxymethyl)aminomethane and 5 mM glucose. For measurement of basal uptake, Basal uptake measurement buffer, which contained 140 mM choline chloride instead of sodium chloride was prepared. In uptake assays, NBMPR was added to Uptake buffer and Basal uptake measurement buffer at the final concentration of 10 μM. In the case of measurement of inhibitory activity of test compounds, test compounds were dissolved in dimethyl sulfoxide, and then appropriately diluted with Uptake buffer as to Measurement buffers. After removing culture medium of human CNT2 transiently expressing cells, Pretreatment buffer (Basal uptake measurement buffer without adenosine and glucose) was added to wells at 500 μL/well and incubated at 37° C. for 10 minutes. After repeating the same step again, Pretreatment buffer was removed and Measurement buffers and Basal uptake measurement buffer were added at 300 μL/well and incubated at 37° C. After incubation for 30 minutes, Measurement buffers and Basal uptake measurement buffer were removed, and the cells were washed with Washing buffer (Basal uptake measurement buffer with non-radioisotope labeled adenosine at 10 μM) at 500 μL/well twice. The cells were solubilized with 0.5 mol/L sodium hydroxide at 200 μL/well, and the cell lysates were transferred into glass vials at 100 μL. After mixing with 5 mL of ACS-II (GE Healthcare Bioscience), radioactivity was measured by means of scintillation counter (Aloka). One hundred % was set to the difference between the uptake in the control group and the basal uptake, and the uptake of adenosine at each test compound concentration was calculated. The test compound concentration inhibiting 50% uptake of adenosine (IC50 value) was calculated using regression line. […] The IC50 value was expressed as A; 1˜10 nM, B; 10˜100 nM or not less than 100 nM;"}},
  "data": [
    {"smiles": "N#Cc1c(NCc2ccc(-c3ccccc3)cc2)n(C2O[C@H](CO)[C@@H](O)[C@H]2O)c2ncnc(N)c12", "note": "(stereo partly drawn) [Comparative compound, reference compound]", "values": [
      {"measurement": "residual ratio of the compound (%)", "setting": "[1]", "value": 45.0, "unit": "%"}
    ]},
    {"smiles": "C[C@@]1(O)[C@H](O)[C@@H](CO)O[C@H]1n1c(NCc2ccc(-c3ccccc3)cc2)c(C#N)c2c(N)ncnc21", "note": "[Compound (1), 4-Amino-6-[(biphenyl-4-ylmethyl)-amino]-7-(3,4-dihydroxy-5-hydroxymethyl-3-methyl-tetrahydro-furan-2-yl)-7H-pyrrolo[2,3-d]pyrimidine-5-carbonitrile]", "values": [
      {"measurement": "ED50", "setting": "absorption of adenosine", "value": 1.3, "unit": "mg/kg"},
      {"measurement": "ED50 value (in words)", "setting": "absorption of adenosine", "value": "high ED50 value"},
      {"measurement": "residual ratio of the compound (%)", "setting": "[1]", "value": 85.0, "unit": "%"},
      {"measurement": "Stability in pH3 solution (in words)", "setting": "[1]; pH3 solution, versus comparative compound", "value": "better than that of comparative compound"},
      {"measurement": "IC50", "setting": "human CNT2", "value": "≥ 100", "unit": "nM"}
    ]},
    {"smiles": "CCOC(=O)CCCCOc1cc(CNc2c(C#N)c3c(N)ncnc3n2C2O[C@H](CO)[C@@H](O)[C@@]2(C)O)ccc1-c1ccccc1", "note": "(stereo partly drawn) [Compound (2), 5-(4-{[4-Amino-5-cyano-7-(3,4-dihydroxy-5-hydroxymethyl-3-methyl-tetrahydrofuran-2-yl)-7H-pyrrolo[2,3-d]pyrimidin-6-ylamino]-methyl}-biphenyl-2-yloxy)-pentanoic acid ethyl ester]", "values": [
      {"measurement": "ED50", "setting": "absorption of adenosine", "value": 1.4, "unit": "mg/kg"},
      {"measurement": "ED50 value (in words)", "setting": "absorption of adenosine", "value": "high ED50 value"},
      {"measurement": "IC50", "setting": "human CNT2", "value": "10 to 100", "unit": "nM"}
    ]},
    {"smiles": "C[C@]1(O)C(n2c(NCc3ccc(-c4ccccc4)c(OCCCCCl)c3)c(C#N)c3c(N)ncnc32)O[C@H](CO)[C@H]1O", "note": "(stereo partly drawn) [Compound (3), 4-Amino-6-{[2-(4-chloro-butoxy)-biphenyl-4-ylmethyl]-amino}-7-(3,4-dihydroxy-5-hydroxymethyl-3-methyl-tetrahydro-furan-2-yl)-7H-pyrrolo[2,3-d]pyrimidine-5-carbonitrile]", "values": [
      {"measurement": "ED50", "setting": "absorption of adenosine", "value": 1.1, "unit": "mg/kg"},
      {"measurement": "ED50 value (in words)", "setting": "absorption of adenosine", "value": "high ED50 value"},
      {"measurement": "IC50", "setting": "human CNT2", "value": "10 to 100", "unit": "nM"}
    ]},
    {"smiles": "C[C@]1(O)C(n2c(NCc3ccc(-c4ccccc4)c(OCCCCN4CCOCC4)c3)c(C#N)c3c(N)ncnc32)O[C@H](CO)[C@H]1O", "note": "(stereo partly drawn) [Compound (4), 4-Amino-7-(3,4-dihydroxy-5-hydroxymethyl-3-methyl-tetrahydro-furan-2-yl)-6-{[2-(4-morpholin-4-yl-butoxy)-biphenyl-4-ylmethyl]-amino}-7H-pyrrolo[2,3-d]pyrimidine-5-carbonitrile]", "values": [
      {"measurement": "ED50", "setting": "absorption of adenosine", "value": 0.51, "unit": "mg/kg"},
      {"measurement": "ED50 value (in words)", "setting": "absorption of adenosine", "value": "high ED50 value"},
      {"measurement": "IC50", "setting": "human CNT2", "value": "10 to 100", "unit": "nM"}
    ]},
    {"smiles": "CC(C)(C)[Si](C)(C)OCCCCOc1cc(CNc2c(C#N)c3c(N)ncnc3n2C2O[C@H](CO)[C@@H](O)[C@@]2(C)O)ccc1-c1ccccc1", "note": "(stereo partly drawn) [Compound (5), 4-Amino-6-({2-[4-(tert-butyl-dimethyl-silanyloxy)-butoxy]-biphenyl-4-ylmeth-yl}-amino)-7-(3,4-dihydroxy-5-hydroxymethyl-3-methyl-tetrahydro-furan-2-yl)-7H-pyrrolo[2,3-d]pyrimidine-5-carbonitrile]", "values": [
      {"measurement": "IC50", "setting": "human CNT2", "value": "≥ 100", "unit": "nM"}
    ]},
    {"smiles": "C[C@]1(O)C(n2c(NCc3ccc(-c4ccccc4)c(OCCCCN4CCCCC4)c3)c(C#N)c3c(N)ncnc32)O[C@H](CO)[C@H]1O", "note": "(stereo partly drawn) [Compound (6), 4-Amino-7-(3,4-dihydroxy-5-hydroxymethyl-3-methyl-tetrahydro-furan-2-yl)-6-{[2-(4-piperidin-1-yl-butoxy)-biphenyl-4-ylmethyl]-amino}-7H-pyrrolo[2,3-d]pyrimidine-5-carbonitrile]", "values": [
      {"measurement": "IC50", "setting": "human CNT2", "value": "10 to 100", "unit": "nM"}
    ]},
    {"smiles": "CN(C)C(=O)CCCCOc1cc(CNc2c(C#N)c3c(N)ncnc3n2C2O[C@H](CO)[C@@H](O)[C@@]2(C)O)ccc1-c1ccccc1", "note": "(stereo partly drawn) [Compound (7), 5-(4-{[4-Amino-5-cyano-7-(3,4-dihydroxy-5-hydroxymethyl-3-methyltetrahydrofuran-2-yl)-7H-pyrrolo[2,3-d]pyrimidin-6-ylamino]-methyl}-biphenyl-2-yloxy)-pentanoic acid dimethylamide]", "values": [
      {"measurement": "ED50", "setting": "absorption of adenosine", "value": 3, "unit": "mg/kg"},
      {"measurement": "ED50 value (in words)", "setting": "absorption of adenosine", "value": "high ED50 value"},
      {"measurement": "IC50", "setting": "human CNT2", "value": "1 to 10", "unit": "nM"}
    ]},
    {"smiles": "C[C@]1(O)C(n2c(NCc3ccc(-c4ccccc4)c(OCCCCO)c3)c(C#N)c3c(N)ncnc32)O[C@H](CO)[C@H]1O", "note": "(stereo partly drawn) [Compound (8), 4-Amino-7-(3,4-dihydroxy-5-hydroxymethyl-3-methyl-tetrahydro-furan-2-yl)-6-{[2-(4-hydroxy-butoxy)-biphenyl-4-ylmethyl]-amino}-7H-pyrrolo[2,3-d]pyrimidine-5-carbonitrile]", "values": [
      {"measurement": "ED50", "setting": "absorption of adenosine", "value": 0.78, "unit": "mg/kg"},
      {"measurement": "ED50 value (in words)", "setting": "absorption of adenosine", "value": "high ED50 value"},
      {"measurement": "IC50", "setting": "human CNT2", "value": "1 to 10", "unit": "nM"}
    ]},
    {"smiles": "CCOC(=O)CCCCOc1cc(CNc2c(C#N)c3c(O)ncnc3n2C2O[C@H](CO)[C@@H](O)[C@@]2(C)O)ccc1-c1ccccc1", "note": "(stereo partly drawn) [Compound (9), 5-(4-{[5-Cyano-7-(3,4-dihydroxy-5-hydroxymethyl-3-methyltetrahydro-furan-2-yl)-4-hydroxy-7H-pyrrolo[2,3-d]pyrimidin-6-ylamino]methyl}-biphenyl-2-yloxy)-pentanoic acid ethyl ester]", "values": [
      {"measurement": "IC50", "setting": "human CNT2", "value": "≥ 100", "unit": "nM"}
    ]}
  ]
}
